Activity and Tm data for 2 compounds are collected here from ChEMBL document CHEMBL4014333, “Discovery of Small Molecules for Repressing Cap-Independent Translation of Human Vascular Endothelial Growth Factor (hVEGF) as Novel Antitumor Agents” (J Med Chem, 2017).

Active and inactive are the calls of the source. The rule behind the calls is not given here.

One test deals with MCF7. Nature of the test: Antitumor activity against human MCF7 cells xenografted in nude Balb/c mouse assessed as tumor weight at 1 mg/kg, ip qd for 20 days. The format is functional. Background: A xenograft is tissue or cells of one species grown in another, often human tumour cells in immunodeficient mice.
The species entered for test [1] is Homo sapiens. Nature of the test: Destabilization of human wild type internal ribosome entry site A RNA G-quadruplex expressed in MCF7 cells assessed as down regulation of VEGF-A translation at 1.5 uM after 24 hrs by dual-luciferase reporter gene assay relative to control. The format is cell-based.
The species entered for test [2] is Homo sapiens. Nature of the test: Destabilization of human 5'-UGAAGAGUGUGAGUAGUA-3' RNA expressed in MCF7 cells assessed as down regulation of VEGF-A translation at up to 0.5 uM after 24 hrs by dual-luciferase reporter gene assay. The test is classed as cell-based.
For test [3], the species on record is Homo sapiens. Nature of the test: Destabilization of human wild type internal ribosome entry site A RNA G-quadruplex assessed as melting temperature at 5 uM by CD spectra method (reference value: 80.9 +/- 0.8 degreeC).

Regarding `COc1cccc2c1C(=O)c1c(O)c3c(c(O)c1C2=O)C[C@@](O)(C(=O)CO)C[C@@H]3O[C@H]1C[C@H](N)[C@H](O)[C@H](C)O1` [DOXORUBICIN], the Activity with MCF7 was 0.14 g.

For `NCCOc1cc(C(=O)Nc2cc(OCCN)c3ccccc3n2)cc(C(=O)Nc2cc(OCCN)c3ccccc3n2)c1`, the result in the test listed under Homo sapiens [1] and in the test listed under Homo sapiens [2] was inactive. For the same compound, the Tm in the test listed under Homo sapiens [3] was over 76 °C.
